Laboratory results published in patent US9517269B1, “Stable pentobarbital formulation” (Akorn, Inc., priority 2013, dated 2016).

Legend:
[1] = background statement; cited from earlier work
[2] = Formulation Development Study #4 (target pH 9.0): physical observations; type: physicochemical; details: pH ˜9.0 and propylene glycol concentration less than 50%
Procedure: Four lab batches similar to Formulation Development Study #3 were made. The purpose of these batches was to find out if impurity at RRT 0.7 can be reduced by making lab batches with different concentrations of propylene glycol and alcohol at the target pH of 9.0. […] These four lab batches were placed on stability at room temperature, 40° C., and 50° C.

[3] = Formulation Development Study #5 (44% propylene glycol): physical observations; type: physicochemical; details: with 44% propylene glycol at pH-9.0
Procedure: In order to determine at what pH precipitate forms at room temperature, three lab batches were made with 44% propylene glycol and target pH at 9.1, 9.0 and 8.9. […] Lab batch samples were placed on stability at room temperature, 40° C., and 50° C. for three months. Only physical observations were performed during the stability study.

[4] = Formulation Development Study #2 (target pH 8.70): physical observations; type: physicochemical; details: below pH 8.7
Procedure: Based on Formulation Development Study #1, four more lab batches were made with different concentrations of propylene glycol and ethyl alcohol at target pH 8.70. The purpose of the study was to determine the influence of low pH and different concentrations of propylene glycol and ethyl alcohol on the product quality. Physical observations were recorded during compounding. Lab batch samples were placed on stability at room temperature, 40° C. and 50° C. Only physical observations were performed and recorded during stability. The stability study lasted one month.

Q: With `CCCC(C)C1(CC)C(=O)NC(=O)NC1=O` (stereo not shown) [pentobarbital, 5-Ethyl-5-(1-methylbutyl)-2,4,6(1H,3H,5H)-pyrimidinetrione] as the compound, how does the “pH at which pentobarbital precipitates” value [1] read?
A: less than 9.0

Q: And the “Stability of pentobarbital in solution (precipitation)” value (“Stability of pentobarbital” below) [2]?
A: not stable

Q: And the “Stability of pentobarbital” value [3]?
A: not stable

Q: And the “Stability of pentobarbital” value [4]?
A: not stable
